These results are taken from PMC7970697, “Inhibition and Induction by Poziotinib of Different Rat Cytochrome P450 Enzymes In Vivo and in an In Vitro Cocktail Method” (Frontiers in Pharmacology, 2021).

Read-outs that look alike come from different tables or passages of the source. Bounds are passed on as bounds.

The target of one series is T1, cyp1a2 (Rattus norvegicus, UniProt P04799).
T1 construct: To this cocktail, 1 mg/ml of RLMs; from tissue; host or cells: rat liver microsomes, prepared in-house
T1 sequence (P04799 1-513): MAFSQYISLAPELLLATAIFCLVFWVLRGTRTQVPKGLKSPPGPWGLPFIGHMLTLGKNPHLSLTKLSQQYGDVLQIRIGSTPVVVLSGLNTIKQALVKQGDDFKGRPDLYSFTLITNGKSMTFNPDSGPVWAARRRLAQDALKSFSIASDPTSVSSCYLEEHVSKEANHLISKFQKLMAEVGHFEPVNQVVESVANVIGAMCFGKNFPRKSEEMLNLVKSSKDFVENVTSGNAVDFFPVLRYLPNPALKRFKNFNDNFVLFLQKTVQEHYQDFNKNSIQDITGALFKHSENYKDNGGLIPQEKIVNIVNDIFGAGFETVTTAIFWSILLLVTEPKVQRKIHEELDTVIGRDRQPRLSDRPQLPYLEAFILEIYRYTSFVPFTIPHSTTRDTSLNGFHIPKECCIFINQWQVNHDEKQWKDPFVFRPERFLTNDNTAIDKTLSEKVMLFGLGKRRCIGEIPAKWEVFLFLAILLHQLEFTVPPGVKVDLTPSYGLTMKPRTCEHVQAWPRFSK
Briefly: Cocktail method IC50 in rat liver microsomes, phenacetin probe. Type of series: in vitro ADME. The procedure:
(§1) The cocktail method was employed to analyze the effects of poziotinib on cyp1a2, cyp2b1, cyp2c11, cyp2d1, cyp2e1, and cyp3a1/2. […] Then half-maximal inhibitory concentration (IC50) of poziotinib was determined with all of the CYPs. […]. To this cocktail, 1 mg/ml of RLMs, 100 mM potassium phosphate buffer (pH 7.4), poziotinib (1, 2.5, 5, 10, 25, 50, or 100 μM) were added to obtain a final volume of 200 μL. After pre-incubation of this mixture for 5 min in a shaking water bath at 37°C, 1 mM NADPH was added to start the reaction. The reactions were allowed to proceed for 30 min, after which 200 μL of acetonitrile and 20 μL of IS were added to terminate the reactions. The mixtures were vortexed for 30 s and centrifuged again at 13,000 rpm for 5 min.
(Microsomes from liver hold many membrane-bound enzymes, among them those of drug oxidation.)

For the next series, the system named is cyp2e1. Briefly: Effect of poziotinib on cyp2e1 activity in rats (chlorzoxazone pharmacokinetics). The class given is in vivo, Sprague-Dawley rats. The settings on record: poziotinib 5 mg/kg oral 7 days, chlorzoxazone probe.
The test system of a further series is cyp3a1/2. Briefly: Effect of poziotinib on cyp3a1/2 activity in rats (midazolam pharmacokinetics). Type of series: in vivo, Sprague-Dawley rats. The settings on record: poziotinib 5 mg/kg oral 7 days, midazolam probe.
On the set-up of series [1]: method as in He et al., 2019; Kim T. Y. et al., 2019. The note with it: treatment, ref He et al., 2019, Kim T. Y. et al.; cited from earlier work.
Another series addresses T2, cyp2b1 (Rattus norvegicus, UniProt P00176).
T2 sequence (P00176 1-491): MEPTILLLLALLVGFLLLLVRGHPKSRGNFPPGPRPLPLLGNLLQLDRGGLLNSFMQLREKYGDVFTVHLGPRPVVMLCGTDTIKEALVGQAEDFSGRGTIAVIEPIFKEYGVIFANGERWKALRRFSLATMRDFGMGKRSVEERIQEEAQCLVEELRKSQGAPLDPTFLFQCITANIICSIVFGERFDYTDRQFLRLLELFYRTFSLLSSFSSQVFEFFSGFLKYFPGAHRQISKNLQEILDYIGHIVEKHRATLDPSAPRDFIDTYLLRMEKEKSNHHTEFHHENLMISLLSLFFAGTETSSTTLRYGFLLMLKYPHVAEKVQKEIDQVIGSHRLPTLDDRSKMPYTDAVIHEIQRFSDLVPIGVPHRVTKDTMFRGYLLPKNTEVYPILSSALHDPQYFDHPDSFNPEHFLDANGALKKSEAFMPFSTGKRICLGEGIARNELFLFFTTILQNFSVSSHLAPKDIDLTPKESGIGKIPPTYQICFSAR
Briefly: Cocktail method IC50 in rat liver microsomes, bupropion probe. Type of series: in vitro ADME. Also on record: from tissue; host or cells: rat liver microsomes, prepared in-house. Here is the method:
as §1

The target of series [2] is T3, cyp2c11 (Rattus norvegicus, UniProt P08683).
T3 sequence (P08683 1-500): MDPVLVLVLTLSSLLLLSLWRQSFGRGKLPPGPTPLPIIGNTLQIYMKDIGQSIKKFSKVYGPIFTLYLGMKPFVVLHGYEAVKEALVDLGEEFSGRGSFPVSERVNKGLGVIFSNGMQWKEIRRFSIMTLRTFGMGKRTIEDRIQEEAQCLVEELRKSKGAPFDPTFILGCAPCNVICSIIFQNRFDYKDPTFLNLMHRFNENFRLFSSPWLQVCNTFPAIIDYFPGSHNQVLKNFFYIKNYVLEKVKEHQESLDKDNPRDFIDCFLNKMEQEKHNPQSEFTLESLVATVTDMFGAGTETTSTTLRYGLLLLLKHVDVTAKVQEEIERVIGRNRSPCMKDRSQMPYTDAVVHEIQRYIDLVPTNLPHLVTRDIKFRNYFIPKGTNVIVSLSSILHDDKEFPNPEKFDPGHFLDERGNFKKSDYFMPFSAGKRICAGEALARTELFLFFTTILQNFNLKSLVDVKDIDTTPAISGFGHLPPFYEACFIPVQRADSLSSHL
Briefly: Cocktail method IC50 in rat liver microsomes, tolbutamide probe. The class given is in vitro ADME. Also on record: from tissue; host or cells: rat liver microsomes, prepared in-house. The procedure:
as §1

Series [3] has as its target T3, cyp2c11. Briefly: Mechanism of inhibition (Lineweaver-Burk plots), tolbutamide in RLMs. Also on record: from tissue; host or cells: rat liver microsomes, prepared in-house. Type of series: in vitro ADME. Here is the method: To elucidate the mechanism of inhibition of cyp2b1 and 2c11 by poziotinib, we examined the interaction of different concentrations of poziotinib with bupropion and tolbutamide, respectively. Poziotinib was preincubated with 1 mg/ml of RLMs and probe substrate in a 37°C shaking water bath for 5 min, following which NADPH was added and incubated for 30 min. The concentrations of poziotinib were 0, 2, 4, 8 and 16 μM for 2b1, 0, 5, 10 20 and 40 μM for 2c11. The concentrations of bupropion were 5, 10, 20, and 40 μM, and the concentrations of tolbutamide were 25, 50, 100, and 200 μM. Poziotinib was incubated with different concentrations of the probe substrates in triplicate. The reactions were carried out, stopped, and processed as described in 2.3. Lineweaver-Burk plots were graphed.

Series [4] has as its target T3, cyp2c11. Briefly: Effect of poziotinib on cyp2c11 activity in rats (tolbutamide pharmacokinetics). The class given is in vivo, Sprague-Dawley rats. Further details: from tissue; host or cells: living male Sprague-Dawley rats (whole animal). The settings on record: poziotinib 5 mg/kg oral 7 days, tolbutamide probe.
Procedure: (§2) Twelve male Sprague-Dawley rats (230 ± 20 g) were randomly divided into treated and control groups, with 6 in each group. […] The supernatant was mixed with 200 μL of acetonitrile and 20 μL of 0.5 μg/ml diazepam (IS), vortexed for 30 s, centrifuged at 13,000 rpm for 5 min, and the supernatant was injected into the UPLC-MS/MS system for analysis.
(§3) Pharmacokinetic parameters were calculated using DAS software (Version 3.2.8). SPSS software (version 16.0; SPSS Inc., Chicago, IL, United States) was used to analyze the significance of differences between the main pharmacokinetic parameters. p < 0.05 was considered statistically significant. GraphPad (version 8.0; GraphPad Software Inc., San Diego, CA, United States) was used to calculate IC50 and plot the plasma concentration-time curves and inhibition plots (type of inhibition, time- and concentration-dependence).

Procedure for cyp2e1: as §2, §3
Procedure for cyp3a1/2: as §2, §3

In the case of `C=CC(=O)N1CCC(Oc2cc3c(Nc4ccc(Cl)c(Cl)c4F)ncnc3cc2OC)CC1` [Poziotinib], the “inhibitory effect on cyp1a2 (in words)” value was “did not show any obvious inhibitory effect” against cyp1a2 and “not obvious” on cyp1a2 (listed as poziotinib). Further, the IC50 at cyp1a2 (40 μM phenacetin, cocktail, 30 min) was 128 µM; at cyp2b1 (20 μM bupropion, cocktail, 30 min, read-out: IC50), 8.79 µM; at cyp2b1 (classes after Jin et al., 2015, read-out: inhibition class by IC50, CYP2B1), 1 to 10 µM; on cyp2c11 [2] (100 μM tolbutamide, cocktail, 30 min, read-out: IC50), 20.2 µM; at cyp2c11 [2] (classes after Jin et al., 2015, read-out: inhibition class by IC50, CYP2C11), more than 10 µM. In addition, the “effect on cyp2e1 activity in rats” value with cyp2e1 is “induced cyp2e1 activity”. For the same compound, the “effect on cyp3a1/2 activity in rats” value with cyp3a1/2 was “no significant inhibitory effect”. Also, in series [1], the common adverse reactions result was “rash, diarrhea, and itching”. The “inhibitory effect on cyp2c11 (in words)” value against cyp2c11 [2] was “strong”. The “type of inhibition of cyp2c11” value on cyp2c11 [3] (Lineweaver-Burk plots) was “competitive”. This compound also displayed a Ki at cyp2c11 [3] (rat liver microsomes, tolbutamide 25-200 μM, poziotinib 0-40 μM, secondary plot) of 17.7 µM. Moreover, at cyp2c11 [4], the “effect on cyp2c11 activity in rats” value is on record as “significantly inhibitory effect”.

What is called IC50 is the point on the concentration scale where inhibition reaches its midpoint. Usually Ki stands for the dissociation constant of the complex between target and ligand, obtained from inhibition or displacement. Lower therefore signals a stronger hold on the target.
